Tested on: probiotic bacteria preblend (Lactobacillus rhamnosus GG1 and Bifidobacterium lactis BB12)
Assay type: cell-based
Conditions: iron fortifying agent combined with probiotic bacteria
Experimental: For practical reasons (accuracy in weighed amount), the amounts have been multiplied by 5.
Five preparations containing various iron fortifying agents and probiotic bacteria, and a control composition containing pro biotic bacteria and no iron fortifying agent were tested, as follows:
For each preparation, the required amount of iron fortificant was weighed. The iron fortificant was mixed with the specified amount of diluent TS+, i.e., a reconstitution solution with Tryptone, Sodium Chloride and Antifoam at 37° C. having the following composition:
The mixture was agitated until complete homogenization of the solution (3 min).
The probiotic bacteria preblend (PP036) was added and the mixture agitated for 1 min.
Each of the six preparations were analysed in triplicate.
Bacterial viability was determined immediately after preparation by plating of serial dilutions and subsequent counting of colony forming units. […] The principle of the method is the following: • Samples containing probiotics are weighed, rehydrated in a diluent (TS+) and homogenized by stomaching. • Serial decimal dilutions are performed in the same diluent (TS+) • 1 mL of each appropriate dilution is transferred to Petri dishes and mixed with a specific agar (pour-plate method) • The inoculated solidified agar plates are incubated under specific conditions enabling colony formation by the target bacteria (selective enumeration) • Colonies are counted and results are calculated and expressed in colony forming units per gram of sample (CFU/g).

| Substance | Effect on viability of probiotic bacteria (in words) |
| --- | --- |
| ferric ammonium citrate | caused a significant loss of bacteria viability |
| ferric pyrophosphate | does not decrease bacterial viability |
| ferrous bisglycinate | caused a significant loss of bacteria viability |
| ferrous sulfate | caused a significant loss of bacteria viability |

Source: patent publication US12397026B2, “Dietary supplement” (SOCIÉTÉ DES PRODUITS NESTLÉ S.A., priority 2015, dated 2025)
